The values below come from patent publication US20250154145A1, “OXER1 ANTAGONISTS AND USES THEREOF” (Fairhaven Pharmaceuticals Ins., priority 2021, published 2025).

A value given as a limit tells only on which side of the number the result lay.

This assay relates to neutrophils. In words: Neutrophil calcium flux assay (5-OXO-ETE-stimulated, Indo-1 fluorescence). The assay is classed as cell-based. Conditions: Neutrophil, 5-OXO-ETE-stimulated calcium flux. In short, it runs like this:
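Indo-1-loaded neutrophils (5×10^6 cells/ml, 30 min at 37 °C) in HBSS with Ca/Mg and HEPES, pre-incubated 5 min with antagonist or buffer. Stimulated with 5-OXO-ETE added at 200 nM (4× stock); fluorescence (ex 331/em 410 nm) read every 5 s for 30 cycles, expressed as net fluorescence.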
In general terms: Calcium flux is commonly read through the fluorescence of an indicator in the cells.
As usually defined, the IC50 is the midpoint of a concentration-inhibition curve. As for `C[C@@H]1[C@@H](C(=O)O)CCN1C(=O)c1c(CCCCCCC#CC2CC(F)(F)C2)n(C)c2ncc(C#N)cc12` [Compound I-346], the IC50 was less than 100 nM.

In the case of `C[C@H](CC(=O)O)CC(=O)c1c(CCCCCOc2cnccn2)n(C)c2ccc(Cl)cc12` [Compound I-132], the IC50 was greater than 300 nM.

Regarding `CC(CC(=O)O)CC(=O)c1c(C[C@H]2CC[C@@H](OCc3cccc(Cl)c3)CC2)n(C)c2ncc(C#N)cc12` (stereo partly shown) [Compound I-399], the IC50 was greater than 300 nM.

As for `C[C@H](CC(=O)O)CC(=O)c1c(CCCCCCC#CC2CC(F)(F)C2)n(C)c2ccc(Cl)cc12` [Compound I-319], the IC50 is less than 100 nM.

Consider `C[C@H](CC(=O)O)CC(=O)c1c(CCCCCNc2ccccn2)n(C)c2ccc(Cl)cc12` [Compound I-128], for which the IC50 was greater than 300 nM.

Turning to `CC(CC(=O)O)CC(=O)c1c(CCCCCCC#CCC(F)(F)F)n(C)c2ccc(Cl)cc12` (stereo not shown) [Compound I-111], the IC50 lay in the range of 100 to 300 nM.

Consider `Cn1c(CCCCOCc2cccc(Cl)c2)c(C(=O)N2CC[C@H](c3nnn[nH]3)C2)c2cc(C(F)(F)F)cnc21` [Compound I-184], for which the IC50 was greater than 300 nM.

`C[C@H](CC(=O)O)CC(=O)c1c(CCCCOCc2ccccc2)n(C)c2ncccc12` [Compound I-101]: the IC50 is greater than 300 nM.

Take `C[C@H](CC(=O)O)CC(=O)c1c(CCCCCCCC#CC2CC(F)(F)C2)n(C)c2ccc(Cl)cc12` [Compound I-331]: the IC50 is less than 100 nM.

As to `Cn1c(CCCCCCC#CC2CC(F)(F)C2)c(C(=O)O)c2cc(Br)cnc21` [Compound I-348], the IC50 is greater than 300 nM.

For `Cn1c(CCCCOCc2cccc(Cl)c2)c(C(=O)N2CC[C@H](C(=O)O)C2)c2cc(C(F)(F)F)ccc21` [Compound I-187], the IC50 lay within 100 to 300 nM.

`CC(CC(=O)O)CC(=O)c1c(CCCCCCC=C=CC(F)(F)F)n(C)c2ccc(Cl)cc12` (stereo not shown) [Compound I-304]: the IC50 was greater than 300 nM.

As for `C[C@H](CC(=O)O)CC(=O)c1c(CCCCOCc2ccc(F)cc2)n(C)c2ncc(C#N)cc12` [Compound I-249], the IC50 is less than 100 nM.

With `Cn1c(CCCCOCc2cccc(Cl)c2)c(C(=O)N2CCC[C@H](C(=O)O)C2)c2cc(C#N)cnc21` [Compound I-181], the IC50 is greater than 300 nM.

Take `Cn1cc(-c2ccccc2Cl)c(C(=O)N2CC[C@H](C(=O)O)C2)c1CCCCOCc1cccc(Cl)c1` [Compound I-166]: the IC50 is greater than 300 nM.

Take `C[C@H](CC(=O)O)CC(=O)c1c(CCCCCCc2cncs2)n(C)c2ncc(C#N)cc12` [Compound I-371]: the IC50 was less than 100 nM.

For the molecule `CC(=O)NCCCCCc1c(C(=O)C[C@H](C)CC(=O)O)c2cc(Cl)ccc2n1C` [Compound I-126], the IC50 was greater than 300 nM.

For the molecule `COc1cnc2c(c1)c(C(=O)CC(C)CC(=O)O)c(CCCCOCc1ccccc1)n2C` (stereo not shown) [Compound I-103], the IC50 is greater than 300 nM.

With `CC(CC(=O)O)CC(=O)c1c(CCCCOCc2cc(C#N)ccn2)n(C)c2ncc(Cl)cc12` (stereo not shown) [Compound I-444], the IC50 is greater than 300 nM.

For `C[C@H](CC(=O)O)CC(=O)c1c(CCCCCCc2ccccn2)n(C)c2ccc(Cl)cc12` [Compound I-54], the IC50 fell in the range of 100 to 300 nM.

In the case of `CC(CC(=O)O)CC(=O)c1c(CCCCCCC#CC2CC(F)(F)C2)n(C)c2ccc(Cl)cc12` (stereo not shown) [Compound I-278], the IC50 was less than 100 nM.

Regarding `C[C@H](CC(=O)O)CC(=O)c1c(CCCCOCc2cccc(C#N)c2)n(C)c2cnc(Cl)cc12` [Compound I-404], the IC50 is less than 100 nM.

With `CC(CC(=O)O)CC(=O)c1c(CCCC[S+]([O-])Cc2ccccc2)n(C)c2ncc(C#N)cc12` (stereo not shown) [Compound I-427], the IC50 is greater than 300 nM.

For the molecule `CC(CC(=O)O)CC(=O)c1c(CCCCCCc2cccc(Cl)c2)n(C[C@@H](O)CO)c2ncc(C(N)=O)cc12` (stereo partly shown) [Compound I-283], the IC50 is 100 to 300 nM.

For the molecule `CC(=O)Nc1cccc(COCCCCc2c(C(=O)CC(C)CC(=O)O)c3cc(C#N)cnc3n2C)c1` (stereo not shown) [Compound I-298], the IC50 is 100 to 300 nM.

For `CC(CC(=O)O)CC(=O)c1c(CCCCCCc2cccc(Cl)c2)n(C[C@H](O)CO)c2ncc(C#N)cc12` (stereo partly shown) [Compound I-282], the IC50 is greater than 300 nM.

For `C[C@H](CC(=O)O)CC(=O)c1c(CCCCOCc2cccc(F)c2)n(C)c2ncc(C#N)cc12` [Compound I-293], the IC50 was less than 100 nM.

Consider `C[C@@H](CC(=O)O)CC(=O)c1c(CCCCCCc2cccc(Cl)c2)n(CCO)c2ncc(C#N)cc12` [Compound I-280], for which the IC50 was greater than 300 nM.

For `CC(CC(=O)O)CC(=O)c1c(CCCCCC(O)c2ccc(F)c(Cl)c2)n(C)c2ncc(C#N)cc12` (stereo not shown) [Compound I-301], the 50% inhibitory concentration (IC50) was less than 100 nM.

For `C[C@H](CC(=O)O)CC(=O)c1c(CCCCC(=O)Nc2cccc(Cl)c2)n(C)c2ccc(Cl)cc12` [Compound I-80], the IC50 is greater than 300 nM.

For `C[C@H](CC(=O)O)CC(=O)c1c(CCCOCCC#CC2CC(F)(F)C2)n(C)c2ccc(Cl)cc12` [Compound I-325], the IC50 was less than 100 nM.

In the case of `CC(CC(=O)O)CC(=O)c1c(CCCCCC(O)c2cccc(C(=O)N(C)C)c2)n(C)c2ncc(C#N)cc12` (stereo not shown) [Compound I-314], the IC50 is less than 100 nM.

Turning to `C[C@H](CC(=O)N[C@@H](Cc1ccccc1)C(=O)O)CC(=O)c1c(CCCCOCc2ccccc2)n(C)c2ncc(C#N)cc12` [Compound I-467], the IC50 is greater than 300 nM.

As to `C[C@@H](CC(=O)c1c(CCCCCCC#CC2CC(F)(F)C2)n(C)c2ccc(Cl)cc12)Cc1nnn[nH]1` [Compound I-352], the IC50 is less than 100 nM.

With `CC(CC(=O)O)CC(=O)c1c(CCCCOCc2cccc(C#N)c2)n(C)c2ncccc12` (stereo not shown) [Compound I-392], the IC50 was 100 to 300 nM.

Take `C[C@H](CC(=O)O)CC(=O)c1c(CCCCCOc2ccccn2)n(C)c2ccc(Cl)cc12` [Compound I-131]: the IC50 was greater than 300 nM.

In the case of `CC(CC(=O)O)CC(=O)c1c(C2CCN(CCc3cccc(Cl)c3)CC2)n(C)c2ncc(C#N)cc12` (stereo not shown) [Compound I-295], the IC50 was greater than 300 nM.

`CC(CC(=O)O)CC(=O)c1c(CCCCOCc2cccc(C#N)c2)n(C)c2ncc(C(F)(F)F)cc12` (stereo not shown) [Compound I-417]: the IC50 lay in the range of 100 to 300 nM.

For the molecule `CC(CC(=O)O)CC(=O)c1c(COCCOCc2cccc(Cl)c2)n(C)c2ccc(Cl)cc12` (stereo not shown) [Compound I-65], the IC50 fell in the range of 100 to 300 nM.

Consider `C[C@H](CC(N)=O)CC(=O)c1c(CCCCOCc2cccc(Cl)c2)n(C)c2ncc(Cl)cc12` [Compound I-356], for which the IC50 was greater than 300 nM.

Take `Cn1c(CCCCCCc2cccc(Cl)c2)c(C(=O)N2CC(CC(=O)O)C2)c2cc(Cl)cnc21` [Compound I-154]: the IC50 was greater than 300 nM.

Turning to `CC(CC(=O)O)CC(=O)c1c(CCCCS(=O)(=O)Cc2ccccc2)n(C)c2ncc(C#N)cc12` (stereo not shown) [Compound I-428], the IC50 is greater than 300 nM.

Consider `C[C@H](CC(=O)O)CC(=O)c1c(CCCCOCc2cccc(C#N)c2)n(C)c2ncc(C#N)cc12` [Compound I-383], for which the IC50 was less than 100 nM.

On to `C[C@H](CC(=O)O)CC(=O)c1c(CCCCOCc2cccc(C#N)c2)n(C)c2ncc(F)cc12` [Compound I-416], for which the IC50 lay in the range of 100 to 300 nM.

On to `Cn1c(CCCCCCC#CC2CC(F)(F)C2)c(C(=O)N2CC[C@H](C(=O)O)C2)c2cc(Br)cnc21` [Compound I-345], for which the IC50 lay in the range of 100 to 300 nM.

With `C[C@H](CC(=O)O)CC(=O)c1c(CCCCOCc2cccc(OC(F)(F)F)c2)n(C)c2ncc(C#N)cc12` [Compound I-389], the IC50 was less than 100 nM.

On to `CC(CC(=O)O)CC(=O)c1c(CCCCOCc2cccc(Cl)c2)n(C)c2nccc(Cl)c12` (stereo not shown) [Compound I-379], for which the IC50 was greater than 300 nM.

Take `CC(CC(=O)O)CC(=O)c1c(CCCCOCc2cccc(Cl)c2)n(CCO)c2ncc(Cl)cc12` (stereo not shown) [Compound I-378]: the IC50 was greater than 300 nM.

Take `CC(CC(=O)O)CC(=O)c1c(CCOCCNc2ccccc2)n(C)c2ncc(C#N)cc12` (stereo not shown) [Compound I-289]: the IC50 is 100 to 300 nM.

On to `CC(C)[C@H](NC(=O)C[C@@H](C)CC(=O)c1c(CCCCOCc2ccccc2)n(C)c2ncc(C#N)cc12)C(=O)O` [Compound I-466], for which the IC50 is greater than 300 nM.

In the case of `CC(C)OCCCc1c(C(=O)C[C@H](C)CC(=O)O)c2cc(Cl)ccc2n1C` [Compound I-71], the IC50 is greater than 300 nM.

In the case of `CC(CC(=O)O)CC(=O)c1c(CCCCOCc2cc(F)cc(F)c2)n(C)c2ncc(C#N)cc12` (stereo not shown) [Compound I-387], the IC50 is 100 to 300 nM.

Consider `C[C@H](CC(=O)O)CC(=O)c1c(CCCCO[C@@H](C)c2ccccc2)n(C)c2ncc(C#N)cc12` [Compound I-432], for which the IC50 was less than 100 nM.

With `Cn1c(CCCCCC#CC2CC(F)(F)C2)c(C(=O)N2CC[C@H](C(=O)O)C2)c2cc(C#N)cnc21` [Compound I-343], the IC50 is greater than 300 nM.

Regarding `CC(CNC(=O)c1c(CCCCOCc2cccc(Cl)c2)n(C)c2ncc(C(N)=O)cc12)C(=O)O` (stereo not shown) [Compound I-287], the IC50 was greater than 300 nM.

Regarding `COc1cc(COCCCCc2c(C(=O)CC(C)CC(=O)O)c3cc(Cl)cnc3n2C)ccn1` (stereo not shown) [Compound I-446], the 50% inhibitory concentration (IC50) is greater than 300 nM.

`CC(CC(=O)O)CC(=O)c1c(CCCCOCc2cccc(C#N)c2)n(C)c2cccnc12` (stereo not shown) [Compound I-398]: the IC50 was greater than 300 nM.

Turning to `C[C@@H](CC(=O)O)CC(=O)c1c(CCCCCCc2cncs2)n(C)c2ncc(C#N)cc12` [Compound I-372], the IC50 is greater than 300 nM.

With `C[C@H](CC(=O)O)CC(=O)c1c(CCCCCCC#CC2CC(F)(F)C2)n(C)c2ncc(C#N)cc12` [Compound I-328], the IC50 is less than 100 nM.

`C[C@H](CC(=O)O)CC(=O)c1c(CCCOCCc2cccc(Cl)c2)n(C)c2ccc(Cl)cc12` [Compound I-61]: the IC50 is less than 100 nM.

As for `Cn1c(CCCCOCc2cccc(Cl)c2)c(C(=O)N2CC[C@H](C(=O)O)C2)c2cc(C(F)(F)F)cnc21` [Compound I-183], the IC50 was greater than 300 nM.

On to `CC(CC(=O)O)CC(=O)c1c(CCCCCCc2cccc(Cl)c2)n(C[C@@H](O)CO)c2ncc(C#N)cc12` (stereo partly shown) [Compound I-284], for which the IC50 is less than 100 nM.

Turning to `Cn1c(CCCCCC(O)c2cccc(Cl)c2)c(C(=O)N2CC[C@H](c3nnn[nH]3)C2)c2cc(C#N)cnc21` (stereo partly shown) [Compound I-225], the IC50 is 100 to 300 nM.

On to `C[C@H](CC(=O)O)CC(=O)c1c(CCOCCCC#CC2CC(F)(F)C2)n(C)c2ccc(Cl)cc12` [Compound I-326], for which the concentration for half-maximal inhibition (IC50) was less than 100 nM.
